Results from patent US9533952B2, “N-prop-2-ynyl carboxamide derivatives and their use as TRPA1 antagonists” (Orion Corporation, priority 2012, dated 2017).

Biological target: TRPA1 (Homo sapiens, UniProt O75762)
Test: Determination of TRPA1 activity in vitro (TRPA1 antagonism in vitro)
Type: cell-based
Settings: procedure of Wei et al., Anesthesiology 111 (2009) 147-154

TRPA1, sequence (O75762 whole entry): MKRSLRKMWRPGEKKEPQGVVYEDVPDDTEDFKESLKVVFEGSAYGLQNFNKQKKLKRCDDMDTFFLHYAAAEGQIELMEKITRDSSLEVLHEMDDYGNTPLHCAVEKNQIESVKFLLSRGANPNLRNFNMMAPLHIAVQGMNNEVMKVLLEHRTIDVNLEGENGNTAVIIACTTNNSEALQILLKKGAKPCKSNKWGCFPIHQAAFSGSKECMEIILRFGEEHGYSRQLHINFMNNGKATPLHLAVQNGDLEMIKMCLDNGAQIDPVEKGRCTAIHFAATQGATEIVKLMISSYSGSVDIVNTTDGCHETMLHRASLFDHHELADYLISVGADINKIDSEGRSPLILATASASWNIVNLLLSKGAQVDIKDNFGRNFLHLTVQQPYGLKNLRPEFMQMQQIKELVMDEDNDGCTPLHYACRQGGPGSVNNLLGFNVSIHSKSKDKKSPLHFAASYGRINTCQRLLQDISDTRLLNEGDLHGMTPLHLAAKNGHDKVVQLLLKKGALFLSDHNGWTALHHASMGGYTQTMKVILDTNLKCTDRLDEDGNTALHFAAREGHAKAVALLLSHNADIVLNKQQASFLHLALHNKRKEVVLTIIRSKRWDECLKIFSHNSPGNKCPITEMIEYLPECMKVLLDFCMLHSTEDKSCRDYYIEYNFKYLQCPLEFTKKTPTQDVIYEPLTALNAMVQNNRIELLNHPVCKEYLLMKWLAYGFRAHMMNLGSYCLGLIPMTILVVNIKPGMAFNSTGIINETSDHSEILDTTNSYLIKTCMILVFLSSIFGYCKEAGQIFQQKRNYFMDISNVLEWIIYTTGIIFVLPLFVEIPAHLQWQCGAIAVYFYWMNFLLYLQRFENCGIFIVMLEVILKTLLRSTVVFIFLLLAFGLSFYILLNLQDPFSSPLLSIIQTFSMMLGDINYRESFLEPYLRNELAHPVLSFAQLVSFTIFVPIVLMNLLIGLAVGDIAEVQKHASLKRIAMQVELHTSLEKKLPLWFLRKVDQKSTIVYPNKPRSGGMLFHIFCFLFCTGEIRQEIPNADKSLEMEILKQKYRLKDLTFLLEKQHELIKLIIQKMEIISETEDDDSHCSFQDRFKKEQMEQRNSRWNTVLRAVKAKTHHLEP

SMILES	IC50 [µM]
C#CC(C)(C)NC(=O)c1cc(F)cnc1NCC(F)(F)F [Example 33, 5-Fluoro-N-(2-methylbut-3-yn-2-yl)-2-(2,2,2-trifluoroethylamino)-nicotinamide]	3
C#CC(C)(C)NC(=O)c1cc(C(F)(F)F)cnc1NCC(F)(F)F [Example 35, N-(2-Methylbut-3-yn-2-yl)-2-(2,2,2-trifluoroethylamino)-5-(trifluoromethyl)nicotinamide]	0.5
C#CC(C)(C)NC(=O)c1cc(C#N)ccc1NC1CCC1 [Example 36, 5-Cyano-2-(cyclobutylamino)-N-(2-methylbut-3-yn-2-yl)benzamide]	4.2
C#CC(C)(C)NC(=O)c1ccc(C#N)cc1NC1CCC1 [Example 37, 4-Cyano-2-(cydclobutylamino)-N-(2-methylbut-3-yn-2-yl)benzamide]	3.2
C#CC(C)(C)NC(=O)c1cc(F)c(F)cc1NCC(F)(F)F [Example 38, 4,5-Difluoro-N-(2-methylbut-3-yn-2-yl)-2-(2,2,2-trifluoroethylamino)-benzamide]	2.5
C#CC(C)(C)NC(=O)c1cc(C(F)(F)F)ccc1NCC(F)(F)F [Example 39, N-(2-Methylbut-3-yn-2-yl)-2-(2,2,2-trifluoroethylamino)-5-(trifluoromethyl) benzamide]	0.6
C#CC(C)(C)NC(=O)c1cc(C)ccc1NCC(F)(F)F [Example 40, 5-Methyl-N-(2-methylbut-3-yn-2-yl)-2-(2,2,2-trifluoroethylamino)-benzamide]	2.9
C#CC(C)(C)NC(=O)c1cc(Cl)cnc1NCCC(F)(F)F [Example 41, 5-Chloro-N-(2-methylbut-3yn-2-yl)-2-(3,3,3-trifluoropropylamino)-nicotinamide]	0.5
C#CC(C)(C)NC(=O)c1cc(F)c(F)cc1NCCCC [Example 42, 2-(Butylamino)-4,5-difluoro-N-(2-methylbut-3-yn-2-yl)benzamide]	0.5
C#CC(CC)(CC)NC(=O)c1cc(Br)ccc1NCCOC [Example 43, 5-Bromo-(3-ethylpent-1-yn-3yl)-2-(2-methoxyethylamino)-benzamide]	1
C#CC(CC)(CC)NC(=O)c1cc(Cl)ccc1NCCOC [Example 44, 5-Chloro-N-(3-ethylpent-1-yn-3yl)-2-(2-methoxyethylamino)-benzamide]	1.3
C#CC(CC)(CC)NC(=O)c1cc(F)c(F)cc1NCCOC [Example 45, N-(3-Ethylpent-1-yn-3-yl)-4,5-difluoro-2-(2-methoxyethylamino)-benzamide]	2
C#CC(CC)(CC)NC(=O)c1cc(C(F)(F)F)ccc1NCCOC [Example 46, N-(3-Ethylpent-1-yn-3-yl)-2-(2-methoxyethylamino)-5-(trifluoro-methyl)benzamide]	0.5
C#CC(CC)(CC)NC(=O)c1cc(I)ccc1NCCOC [Example 47, N-(3-Ethylpent-1-yn-3-yl)-5-iodo-2-(2-methoxyethylamino)benzamide]	0.5
C#CC(C)(C)NC(=O)c1cc(C(F)(F)F)ccc1NCCOC [Example 48, 2-(2-Methoxyethylamino)-N-(2-methylbut-3-yn-2-yl)-5-(trifluoromethyl)benzamide]	5.7
C#CC(C)(C)NC(=O)c1cc(F)ccc1NCCCC [Example 49, 2-(Butylamino)-5-fluoro-N-(2-methylbut-3-yn-2-yl)benzamide]	1.1
C#CC(C)(C)NC(=O)c1cc(I)ccc1NCCOC [Example 50, 5-Iodo-2-(2-methoxyethylamino)-N-(2-methylbut-3-yn-2-yl)benzamide]	5.8
C#CC(C)(C)NC(=O)c1cc(F)cnc1NCC(C)C [Example 51, 5-Fluoro-2-(isobutylamino)-N-(2-methylbut-3-yn-2-yl)nicotinamide]	2.2
C#CC(C)(C)NC(=O)c1cc(F)cnc1NCCC(C)C [Example 52, 5-Fluoro-2-(isopentylamino)-N-(2-methylbut-3-yn-2-yl)nicotinamide]	1.2
C#CC(C)(C)NC(=O)c1cc(F)ccc1NCCOC(F)(F)F [Example 53, 5-Fluoro-N-(2-methylbut-3-yn-2-yl)-2-(2-(trifluoromethoxy)-ethylamino)benzamide]	1.9
C#CC(C)(C)NC(=O)c1cc(F)ccc1NCCCC(F)(F)F [Example 54, 5-Fluoro-N-(2-methylbut-3-yn-2-yl)-2-(4,4,4-trifluorobutylamino)-benzamide]	1.2
C#CC(C)(C)NC(=O)c1cc(F)cc(F)c1NCCC(F)(F)F [Example 55, 3,5-Difluoro-N-(2-methylbut-3-yn-2-yl)-2-(3,3,3-trifluoropropylamino)-benzamide]	1.7
C#CC(C)(C)NC(=O)c1cc(C(F)(F)F)cnc1NCC(F)F [Example 56, 2-(2,2-Difluoroethylamino)-N-(2-methylbut-3-yn-2-yl)-5-(trifluoromethyl)nicotinamide]	1.6
C#CC(C)(C)NC(=O)c1cc(F)cnc1NCC(C)(F)F [Example 57, 2-(2,2-Difluoropropylamino)-5-fluoro-N-(2-methylbut-3-yn-2-yl)nicotinamide]	4.7

SMILES	IC50 [µM]
C#CC(C)(C)NC(=O)c1cc(C(F)(F)F)cnc1NCCC(F)F [Example 58, 2-(3,3-Difluoropropylamino)-N-(2-methylbut-3-yn-2-yl)-5-(trifluoromethyl)nicotinamide]	1.1
C#CC(C)(C)NC(=O)c1cc(Cl)cnc1NCC(C)(F)F [Example 59, 5-Chloro-2-(2,2-difluoropropylamino)-N-(2-methylbut-3-yn-2-yl)nicotinamide]	2.3
C#CC(C)(C)NC(=O)c1cc(Cl)cnc1NCCC(F)F [Example 60, 5-Chloro-2-(3,3-difluoropropylamino)-N-(2-methylbut-3-yn-2-yl)nicotinamide]	1.8
C#CC(C)(C)NC(=O)c1cc(F)c(F)cc1NCC(C)(C)C [Example 61, 4,5-Difluoro-N-(2-methylbut-3-yn-2-yl)-2-(neopentylamino) benzamide]	0.8
C#CC(C)(C)NC(=O)c1cc(F)c(F)cc1NCC(C)C [Example 62, 4,5-Difluoro-2-(isobutylamino)-N-(2-methylbut-3-yn-2-yl)benzamide]	0.4
C#CC(C)(C)NC(=O)c1cc(F)c(F)cc1NCCC [Example 63, 4,5-Difluoro-N-(2-methylbut-3-yn-2-yl)-2-(propylamino)benzamide]	3.1
C#CC(C)(C)NC(=O)c1ccccc1NCCCC [Example 64, 2-(Butylamino)-N-(2-methylbut-3-yn-2-yl)benzamide]	1.5
C#CC(C)(C)NC(=O)c1cc(F)c(F)cc1NCC [Example 65, 2-(Ethylamino)-4,5-difluoro-N-(2-methylbut-3-yn-2-yl)benzamide]	4.9
C#CC(C)(C)NC(=O)c1cc(F)c(F)cc1NCCC(F)(F)F [Example 66, 4,5-Difluoro-N-(2-methylbut-3-yn-2-yl)-2-(3,3,3-trifluoropropylamino)-benzamide]	0.9
C#CC(C)(C)NC(=O)c1cc(F)c(F)cc1NC(C)C [Example 67, 4,5-Difluoro-2-(isopropylamino)-N-(2-methylbut-3-yn-2-yl)benzamide]	5.5
C#CC(C)(CC(C)C)NC(=O)c1cc(F)c(F)cc1NCC(C)C (stereo not drawn) [Example 68, N-(3,5-Dimethylhex-1-yn-3-yl)-4,5-difluoro-2-(isobutylamino)-benzamide]	1.1
C#CC(C)(NC(=O)c1cc(F)c(F)cc1NCC(C)C)C(C)C (stereo not drawn) [Example 69, N-(3,4-Dimethylpent-1-yn-3-yl)-4,5-difluoro-2-(isobutylamino)-benzamide]	0.3
C#CC(C)(CCC)NC(=O)c1cc(F)c(F)cc1NCC(C)C (stereo not drawn) [Example 70, 4,5-Difluoro-2-(isobutylamino)-N-(3-methylhex-1-yn-3-yl)benzamide]	0.7
C#CC(C)(C)NC(=O)c1ccc(F)cc1NCCC(F)(F)F [Example 71, 4-Fluoro-N-(2-methylbut-3-yn-2-yl)-2-(3,3,3-trifluoropropylamino) benzamide]	0.7
C#CC(C)(C)NC(=O)c1ccc(C(F)(F)F)cc1NCCC(F)(F)F [Example 72, N-(2-methylbut-3-yn-2-yl)-4-(trifluoromethyl)-2-(3,3,3-trifluoropropyl-amino)benzamide]	0.5
C#CC(C)(C)NC(=O)c1ccc(OC)cc1NCCC(F)(F)F [Example 73, 4-Methoxy-N-(2-methylbut-3-yn-2-yl)-2-(3,3,3-trifluoropropylamino)-benzamide]	2.2
C#CC(C)(C)NC(=O)c1ccc(OC)cc1NCCC [Example 74, 4-Methoxy-N-(2-methylbut-3-yn-2-yl)-2-(propylamino)benzamide]	7
C#CC(C)(C)NC(=O)c1cc(OC(F)(F)F)ccc1NCCC(F)(F)F [Example 75, N-(2-Methylbut-3-yn-2-yl)-5-(trifluoromethoxy)-2-(3,3,3-trifluoropropylamino)benzamide]	0.7
C#CC(C)(C)NC(=O)c1cc(OC)ccc1NCCC(F)(F)F [Example 76, 5-Methoxy-N-(2-methylbut-3-yn-2-yl)-2-(3,3,3-trifluoropropyl-amino)benzamide]	4.7
C#CC(C)(C)NC(=O)c1cc(C)ccc1NCCC(F)(F)F [Example 77, 5-Methyl-N-(2-methylbut-3-yn-2-yl)-2-(3,3,3-trifluoropropylamino)-benzamide]	0.9
C#CC(C)(C)NC(=O)c1cc(SC)ccc1NCCC(F)(F)F [Example 78, N-(2-Methylbut-3-yn-2-yl)-5-(methylthio)-2-(3,3,3-trifluoropropyl-amino)benzamide]	0.8
C#CC(C)(C)NC(=O)c1ccccc1NCCC(F)(F)F [Example 79, N-(2-Methylbut-3-yn-2-yl)-2-(3,3,3-trifluoropropylamino)benzamide]	1.8
C#CC(C)(C)NC(=O)c1ccccc1NCC(C)C [Example 80, 2-(Isobutylamino)-N-(2-methylbut-3-yn-2-yl)benzamide]	1.3
C#CC(C)(C)NC(=O)c1ccccc1NCC(C)(C)C [Example 81, N-(2-Methylbut-3-yn-2-yl)-2-(neopentylamino)benzamide]	1.3
